Results as given in ChEMBL document CHEMBL3608203, “Benzylated and prenylated flavonoids from the root barks of Cudrania tricuspidata with pancreatic lipase inhibitory activity” (Bioorg Med Chem Lett, 2015).
Activity calls are given as the source filed them. The calls are words filed in the database; no cut-off is given here.

Experiments:
[1] = biological target: T1, Pancreatic triacylglycerol lipase (Sus scrofa) (UniProt P00591); test: Inhibition of porcine pancreatic lipase at 100 ug/ml pre-incubated for 15 mins before p-nitrophenylbutyrate substrate addition by microplate reader based method
T1 sequence (whole entry): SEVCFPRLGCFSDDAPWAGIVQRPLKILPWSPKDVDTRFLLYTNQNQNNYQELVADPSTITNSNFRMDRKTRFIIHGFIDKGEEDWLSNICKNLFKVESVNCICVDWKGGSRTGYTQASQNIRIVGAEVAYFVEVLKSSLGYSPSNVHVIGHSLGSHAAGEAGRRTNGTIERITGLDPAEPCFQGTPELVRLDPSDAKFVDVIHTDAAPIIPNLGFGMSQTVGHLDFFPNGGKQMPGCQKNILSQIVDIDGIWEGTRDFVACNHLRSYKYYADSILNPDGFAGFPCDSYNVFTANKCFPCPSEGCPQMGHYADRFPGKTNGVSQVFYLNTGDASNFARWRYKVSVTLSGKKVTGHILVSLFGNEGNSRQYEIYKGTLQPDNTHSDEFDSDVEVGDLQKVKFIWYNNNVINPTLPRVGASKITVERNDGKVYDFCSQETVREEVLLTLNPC

[2] = biological target: T2, Pancreatic triacylglycerol lipase (Sus scrofa, UniProt P00591); test: Inhibition of porcine pancreatic lipase pre-incubated for 15 mins before p-nitrophenylbutyrate substrate addition by microplate reader based method
T2 sequence (P00591 whole entry): T1 sequence (whole entry)

[3] = biological target: T1, Pancreatic triacylglycerol lipase (Sus scrofa); test: Mixed type inhibition of porcine pancreatic lipase pre-incubated for 15 mins before p-nitrophenylbutyrate substrate addition by Lineweaver-Burk plot method

SMILES: CC1(C)C=Cc2c(cc3occc(=O)c3c2O)O1
- inhibition [1]: 27.5%
- IC50 [2]: > 100 µM

SMILES: O=C1c2c(cc(O)c(O)c2O)O[C@H](c2ccc(O)cc2)[C@H]1O
- inhibition [1]: 40.1%
- IC50 [2]: > 100 µM

SMILES: CC(C)(O)CCc1c(O)cc(O)c2c1O[C@@H](c1cc3c(cc1O)OC(C)(C)C=C3)CC2=O
- inhibition [1]: 52%
- IC50 [2]: 84.6 µM

SMILES: CC(C)=CCc1c(O)c(Cc2ccc(O)cc2)c(O)c2c1O[C@H](c1ccc(O)cc1)CC2=O
- inhibition [1]: 70.1%
- IC50 [2]: 54.8 µM

SMILES: COc1ccc(-c2coc3cc(O)cc(O)c3c2=O)cc1 [BIOCHANIN]
- inhibition [1]: 6.1%
- IC50 [2]: > 100 µM

SMILES: CC(C)=CCc1c(O)cc2c(c1O)C(=O)C[C@@H](c1cc3c(cc1O)OC(C)(C)C=C3)O2 [CUDRAFLAVANONE A]
- inhibition [3]: Active
- inhibition [1]: 81.4%
- IC50 [2]: 6.5 µM

SMILES: O=C1c2c(O)cc(O)cc2O[C@H](c2ccc(O)cc2)[C@H]1O [DIHYDROKAEMPFEROL]
- inhibition [1]: 10.8%
- IC50 [2]: > 100 µM

SMILES: O=c1c(-c2ccc(O)cc2)coc2cc(O)cc(O)c12 [GENISTEIN]
- inhibition [1]: 3.2%
- IC50 [2]: > 100 µM

SMILES: O=c1c(O)c(-c2ccc(O)cc2)oc2cc(O)cc(O)c12 [KAEMPFEROL]
- inhibition [1]: 37%
- IC50 [2]: > 100 µM

SMILES: O=c1c(O)c(-c2ccc(O)cc2O)oc2cc(O)cc(O)c12 [MORIN]
- inhibition [1]: 26.3%
- IC50 [2]: > 100 µM

SMILES: O=C1C[C@@H](c2ccc(O)cc2)Oc2cc(O)cc(O)c21 [NARINGENIN]
- inhibition [1]: 25.2%
- IC50 [2]: > 100 µM

SMILES: CC(C)=CCc1c(O)cc(O)c2c1OC(c1ccc(O)cc1)CC2=O (configuration not stated) [SOPHORAFLAVANONE B]
- inhibition [1]: 55.5%
- IC50 [2]: 76.9 µM

SMILES: CC(C)=CCc1c(O)cc2occ(-c3ccc(O)cc3)c(=O)c2c1O [WIGHTEONE]
- inhibition [1]: 49.6%
- IC50 [2]: > 100 µM
